These compounds were tested on MV4-11 cell line transplanted tumor (assay: In vivo efficacy evaluation in mouse transplanted tumor model). Details: MV4-11 xenograft in NU/NU nude mice; 20 mg/kg by gavage every day for 21 days.
Design: species or system mouse (female NU/NU nude mice)
Procedure: Experimental purpose: To test the in vivo efficacy of compounds in mouse transplanted tumor model Experimental materials: female NU/NU nude mice, MV4-11 cell line Experimental methods: female NU/NU nude mice, weighing 20±2 g, were inoculated with MV4-11 cell line in the right axillary subcutaneous with a cell inoculation amount of 5×10^6/mouse. When the tumor formed, the diameter of the transplanted tumor was measured with vernier calipers, and the tumor was grew up to 100-300 mm^3; the animals were divided into model control group and administration group according to their weights and tumor volumes, with 6 animals per group. The administration group was administered with a suspension ground with 0.5% CMC-Na, while the model control group was given an equal amount of blank solvent. After grouping, the drug was administered orally every day at a dose of 20 mg/kg for 21 days. During the experiment, the diameter of the transplanted tumor was measured and the weight of the mice was weighed twice a week, and the tumor tissues were taken from the animal after euthanasia on the 21st day. […]

| Compound | relative tumor proliferation rate T/C |
| --- | --- |
| N#Cc1ccc(-c2nc(N3CCC[C@@H](N)CC3)nc3ccc(-c4c(F)cccc4C(F)(F)F)cc23)cc1F (stereo in doubt) [Compound 89, 4-(2-(4-aminoazepan-1-yl)-6-(2-fluoro-6-(trifluoromethyl)phenyl)quinazolin-4-yl)-2-fluorobenzonitrile] | less than 50% |
| N#Cc1ccc(-c2nc(N3CCC(N)CC3)nc3ccc(-c4c(F)cccc4C(F)(F)F)cc23)cc1F [Compound 19, 4-(2-(4-aminopiperidin-1-yl)-6-(2-fluoro-6-(trifluoromethyl)phenyl)quinazolin-4-yl)-2-fluorobenzonitrile] | less than 50% |

What follows are compounds tested against human recombinant LSD1 protein (Homo sapiens (Human), UniProt O60341) (assay: In vitro enzyme inhibition activity assay - LSD1 (Lance Ultra TR-FRET)). Details: all compounds tested in the form of hydrochloride.
Type: biochemical

| Compound | IC50 |
| --- | --- |
| N#Cc1ccc(-c2nc(N3CCC[C@@H](N)CC3)nc3ccc(-c4c(F)cccc4C(F)(F)F)cc23)cc1F (stereo in doubt) [Compound 89, 4-(2-(4-aminoazepan-1-yl)-6-(2-fluoro-6-(trifluoromethyl)phenyl)quinazolin-4-yl)-2-fluorobenzonitrile] | ≤ 30 nM |
| N#Cc1ccc(-c2nc(N3CCC(N)CC3)nc3ccc(-c4c(F)cccc4C(F)(F)F)cc23)cc1F [Compound 19, 4-(2-(4-aminopiperidin-1-yl)-6-(2-fluoro-6-(trifluoromethyl)phenyl)quinazolin-4-yl)-2-fluorobenzonitrile] | ≤ 30 nM |
| N#Cc1ccc(-c2nc(N3CC4C(N)C4C3)nc3ccc(-c4c(F)cccc4C(F)(F)F)cc23)cc1F (stereo not shown) [Compound 65, 4-(2-(6-Amino-3-azabicyclo[3.1.0]hexan-3-yl)-6-(2-fluoro-6-(trifluoromethyl)phenyl)quinazolin-4-yl)-2-fluorobenzonitrile] | 30 to 300 nM |
| N#Cc1ccc(-c2nc(N3CCC4(CCCN4)CC3)nc3ccc(-c4c(F)cccc4C(F)(F)F)cc23)cc1F [Compound 77, 2-Fluoro-4-(6-(2-fluoro-6-(trifluoromethyl)phenyl)-2-(1,8-diazaspiro[4.5]dec-8-yl)quinazolin-4-yl)benzonitrile] | ≤ 30 nM |
| Cc1cccc(-c2ccc3nc(NC[C@H]4CCNC4)nc(-c4ccc(C#N)c(F)c4)c3c2)c1C(F)(F)F [Compound 59, (S)-2-fluoro-4-(6-(3-methyl-2-(trifluoromethyl)phenyl)-2-((pyrrolidin-3-ylmethyl)amino)quinazolin-4-yl)benzonitrile] | 30 to 300 nM |
| N#Cc1ccc(-c2nc(N3CCC(N)CC3)nc3cc(F)c(-c4ccccc4F)cc23)cc1F [Compound 78, 4-(2-(4-aminopiperidin-1-yl)-7-fluoro-6-(2-fluorophenyl)quinazolin-4-yl)-2-fluorobenzonitrile] | ≤ 30 nM |
| N#Cc1ccc(-c2nc(NC[C@H]3CCNC3)nc3ccc(-c4cccc(F)c4F)cc23)cc1F [Compound 43, (S)-2-fluoro-4-(2-((pyrrolidin-3-ylmethyl)amino)-6-(2,3-difluorophenyl)quinazolin-4-yl)-2-fluorobenzonitrile] | 30 to 300 nM |
| Cn1ncc2cccc(N3CCc4nc(N5CCC(N)CC5)nc(-c5ccc(C#N)c(F)c5)c4C3)c21 [Compound 94, 4-(2-(4-aminopiperidin-1-yl)-6-(1-methyl-1H-indazol-7-yl)-5,6,7,8-tetrahydropyrido[4,3-d]pyrimidin-4-yl)-2-fluorobenzonitrile] | 30 to 300 nM |
| Cc1cccc(C)c1-c1ccc2nc(N3CCC(N)CC3)nc(-c3ccc(C#N)c(F)c3)c2c1 [Compound 12, 4-(2-(4-Aminopiperidin-1-yl)-6-(2,6-dimethylphenyl)quinazolin-4-yl)-2-fluorobenzonitrile] | ≤ 30 nM |
| Cc1ccccc1-c1ccc2nc(NC[C@@H]3CCNC3)nc(-c3ccc(C#N)c(F)c3)c2c1 [Compound 38, (R)-2-fluoro-4-(2-((pyrrolidin-3-ylmethyl)amino)-6-(o-methylphenyl)quinazolin-4-yl)benzonitrile] | 30 to 300 nM |
| N#Cc1ccc(-c2nc(N3C4CCC3CC(N)C4)nc3ccc(-c4c(F)cccc4C(F)(F)F)cc23)cc1F (stereo not shown) [Compound 69, 4-(2-(3-amino-8-azabicyclo[3.2.1]octan-8-yl)-6-(2-fluoro-6-(trifluoromethyl)phenyl)quinazolin-4-yl)-2-fluorobenzonitrile] | ≤ 30 nM |
| Cc1c(F)cccc1-c1ccc2nc(NC[C@H]3CCNC3)nc(-c3ccc(C#N)c(F)c3)c2c1 [Compound 47, (S)-2-fluoro-4-(6-(3-fluoro-2-methylphenyl)-2-((pyrrolidin-3-ylmethyl)amino)quinazolin-4-yl)benzonitrile] | 30 to 300 nM |
| Cc1nn(C)c(C)c1-c1ccc2nc(NC[C@H]3CCNC3)nc(-c3ccc(C#N)c(F)c3)c2c1 [Compound 49, (S)-2-fluoro-4-(2-((pyrrolidin-3-ylmethyl)amino)-6-(1,3,5-trimethyl-1H-pyrazol-4-yl)quinazolin-4-yl)benzonitrile] | 30 to 300 nM |
| N#Cc1ccc(-c2nc(N3CCC(N)CC3)nc3ccc(-c4ccccc4F)cc23)cc1F [Compound 15, 4-(2-(4-aminopiperidin-1-yl)-6-(2-fluorophenyl)quinazolin-4-yl)-2-fluorobenzonitrile] | 30 to 300 nM |
| N#Cc1ccc(-c2nc(NC[C@H]3CCNC3)nc3ccc(-c4c(F)ccc(O)c4F)cc23)cc1F [Compound 60] | 30 to 300 nM |
| N#Cc1ccc(-c2nc(NC[C@H]3CCNC3)nc3ccc(-c4c(F)cccc4Cl)cc23)cc1F [Compound 55] | ≤ 30 nM |
| N#Cc1ccc(-c2nc(N3CCC(N)CC3)nc3c2CN(c2ccccc2C(F)(F)F)CC3)cc1F [Compound 92, 4-(2-(4-aminopiperidin-1-yl)-6-(2-(trifluoromethyl)phenyl)-5,6,7,8-tetrahydropyrido[4,3-d]pyrimidin-4-yl)-2-fluorobenzonitrile] | 30 to 300 nM |
| Cc1ccccc1-c1ccc2nc(N3CCC(N)CC3)nc(-c3ccc(C#N)c(F)c3)c2c1 [Compound 6, 4-(2-(4-aminopiperidin-1-yl)-6-(o-methylphenyl)quinazolin-4-yl)-2-fluorobenzonitrile] | 30 to 300 nM |
| CNC1CCN(c2nc(-c3ccc(C#N)c(F)c3)c3cc(-c4c(F)cccc4C(F)(F)F)ccc3n2)CC1 [Compound 66, 2-Fluoro-4-(6-(2-fluoro-6-(trifluoromethyl)phenyl)-2-(4-(methylamino)piperidin-1-yl)quinazolin-4-yl)benzonitrile] | ≤ 30 nM |
| N#Cc1ccc(-c2nc(N3CCCC[C@@H](N)C3)nc3ccc(-c4c(F)cccc4C(F)(F)F)cc23)cc1F [Compound 87, (R)-4-(2-(3-aminoazepan-1-yl)-6-(2-fluoro-6-(trifluoromethyl)phenyl)quinazolin-4-yl)-2-fluorobenzonitrile] | ≤ 30 nM |

Reference: patent publication US20250042862A1, “AROMATIC HETEROCYCLIC COMPOUND AND APPLICATION THEREOF” (Shanghai Institute of Materia Medica, Chinese Academy of …, priority 2021, published 2025)
